These compounds were tested against T1, Voltage-gated inwardly rectifying potassium channel KCNH2 (Homo sapiens, UniProt Q12809).
T1 sequence (Q12809 whole entry): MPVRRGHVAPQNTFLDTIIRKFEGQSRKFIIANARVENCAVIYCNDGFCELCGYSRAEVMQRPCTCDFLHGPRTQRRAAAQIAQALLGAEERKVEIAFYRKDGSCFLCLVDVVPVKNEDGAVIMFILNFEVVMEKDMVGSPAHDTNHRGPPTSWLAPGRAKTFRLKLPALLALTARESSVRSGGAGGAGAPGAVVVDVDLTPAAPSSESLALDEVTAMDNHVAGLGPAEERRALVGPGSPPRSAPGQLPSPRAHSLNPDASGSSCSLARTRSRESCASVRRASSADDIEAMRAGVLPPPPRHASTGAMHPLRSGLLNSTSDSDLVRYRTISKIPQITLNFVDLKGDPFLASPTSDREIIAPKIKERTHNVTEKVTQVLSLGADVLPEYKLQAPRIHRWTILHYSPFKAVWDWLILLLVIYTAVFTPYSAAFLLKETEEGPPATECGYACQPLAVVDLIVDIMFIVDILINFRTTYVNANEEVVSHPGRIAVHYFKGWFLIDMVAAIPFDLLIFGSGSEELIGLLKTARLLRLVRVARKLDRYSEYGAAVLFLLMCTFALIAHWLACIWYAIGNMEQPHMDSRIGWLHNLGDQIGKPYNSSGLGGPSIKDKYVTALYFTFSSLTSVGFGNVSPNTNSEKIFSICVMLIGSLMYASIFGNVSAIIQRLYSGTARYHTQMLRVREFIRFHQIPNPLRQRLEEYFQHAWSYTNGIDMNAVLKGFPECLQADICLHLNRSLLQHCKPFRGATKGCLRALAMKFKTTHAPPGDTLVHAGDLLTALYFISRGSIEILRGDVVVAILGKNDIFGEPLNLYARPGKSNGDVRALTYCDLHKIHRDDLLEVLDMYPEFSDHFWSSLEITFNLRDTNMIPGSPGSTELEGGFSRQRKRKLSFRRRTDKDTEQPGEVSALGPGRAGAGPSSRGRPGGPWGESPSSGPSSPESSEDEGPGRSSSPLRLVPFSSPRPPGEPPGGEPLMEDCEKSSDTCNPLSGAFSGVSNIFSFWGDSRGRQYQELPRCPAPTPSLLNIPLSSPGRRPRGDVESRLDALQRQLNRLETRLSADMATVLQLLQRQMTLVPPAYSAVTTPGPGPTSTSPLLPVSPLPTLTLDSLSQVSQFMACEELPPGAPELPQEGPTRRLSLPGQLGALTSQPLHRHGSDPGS

Q: Which pIC50 does the source give for `CCc1cn(-c2ccc(F)cc2)c2ccc(Cl)cc12` here?
A: Its pIC50 is 2.46.

Q: How did the pIC50 turn out when `CC(O)c1cn(-c2ccc(F)cc2)c2ccc(Cl)cc12` (stereo not drawn) was run?
A: The pIC50 was 2.34.

Q: Which pIC50 does the source give for `CCC(O)c1cn(-c2ccc(F)cc2)c2ccc(Cl)cc12` (stereo not drawn) here?
A: The pIC50 was 2.66.

Q: Which pIC50 does the source give for `CCCc1cn(-c2ccc(F)cc2)c2ccc(Cl)cc12` here?
A: Its pIC50 is 1.59.

Q: With `CCC(=O)c1cn(-c2ccc(F)cc2)c2ccc(Cl)cc12` as the compound, how does the pIC50 read?
A: Its pIC50 is 2.7.

Target: T1, Voltage-gated inwardly rectifying potassium channel KCNH2
Remark: another data set of the same source

Q: `CC(=O)NC(=O)C1CCC(C2N=CC(c3cccc(Br)c3)=N2)CC1` (stereo not drawn) was tested. Which IC50 did it give?
A: Its IC50 is 0.501 µM.

Q: With `O=C1NCCN1CCN1CCC(c2cn(-c3ccc(F)cc3)c3ccccc23)CC1` as the compound, how does the IC50 read?
A: Its IC50 is 0.00692 µM.

Q: How did the IC50 turn out when `COC(=O)C1=C(C)NC(C)=C(C(=O)OC(C)C)C1c1cccc2nonc12` (stereo not drawn) [ISRADIPINE] was run?
A: Its IC50 is 50.1 µM.

Q: Which IC50 does the source give for `Cc1cccc(C)c1OCC(C)N` (stereo not drawn) [MEXILETINE] here?
A: The IC50 was 10 µM.

Q: With `O=C(NCCN1CCOCC1)c1ccc(Cl)cc1` [MOCLOBEMIDE] as the compound, how does the IC50 read?
A: The IC50 was 79.4 µM.

Q: Which IC50 does the source give for `Cc1cccc(C)c1NC(=O)C1CCCCN1C` (stereo not drawn) [MEPIVACAINE] here?
A: The IC50 was 155 µM.

Q: How did the IC50 turn out when `CCOC(=O)C1C(OC(=O)c2ccccc2)CC2CCC1N2C` (stereo not drawn) was run?
A: Its IC50 is 1.2 µM.

Q: `COc1ccc2cc3[n+](cc2c1OC)CCc1cc2c(cc1-3)OCO2` [BERBERINE] was tested. Which IC50 did it give?
A: The IC50 was 66.1 µM.

Q: `Fc1ccc(-n2cc(C3CCNCC3)c3cc(Cl)ccc32)cc1` was tested. Which IC50 did it give?
A: The IC50 was 0.204 µM.

Q: `CCC1OC(=O)C(C)C(OC2CC(C)(OC)C(O)C(C)O2)C(C)C(OC2OC(C)CC(N(C)C)C2O)C(C)(O)CC(C)/C(=N/OCOCCOC)C(C)C(O)C1(C)O` (stereo not drawn) was tested. Which IC50 did it give?
A: The IC50 was 36.3 µM.

Q: `COC(=O)C1=CCC2CCC1N2C` (stereo in doubt; 21) was tested. Which IC50 did it give?
A: Its IC50 is 8.91 µM.

Q: With `CC(C(O)c1ccc(O)cc1)N1CCC(Cc2ccccc2)CC1` (stereo not drawn) [IFENPRODIL] as the compound, how does the IC50 read?
A: Its IC50 is 0.1 µM.

Q: `CC1=C2C3OC(=O)C(C)C3C(O)CC2(C)C=CC1=O` (stereo not drawn) was tested. Which IC50 did it give?
A: The IC50 was 110 µM.

Q: With `O=C1NCCN1CCN1CC=C(c2cn(-c3ccc(F)cc3)c3ccc(Cl)cc23)CC1` as the compound, how does the IC50 read?
A: Its IC50 is 0.01 µM.

Q: For `CO[C@@H]1[C@@H](O[C@@H]2O[C@H](C)[C@@H](O[C@H]3C[C@@](C)(O)[C@@H](OC(=O)CC(C)C)[C@H](C)O3)[C@H](N(C)C)[C@H]2O)[C@@H](CC=O)C[C@@H](C)[C@@H](O)/C=C\C=C\C[C@@H](C)OC(=O)C[C@H]1OC(C)=O`, which IC50 is on record?
A: Its IC50 is 102 µM.

Q: How did the IC50 turn out when `O=C1NCCN1CCN1CCC(c2cn(C3CCCCC3)c3ccc(Cl)cc23)CC1` was run?
A: Its IC50 is 0.138 µM.

Q: For `NC(=O)N1c2ccccc2C=Cc2ccccc21` [CARBAMAZEPINE], which IC50 is on record?
A: Its IC50 is 105 µM.

Q: For `CCCCN1CCCC[C@H]1C(=O)Nc1c(C)cccc1C` [LEVOBUPIVACAINE], which IC50 is on record?
A: Its IC50 is 20.9 µM.

Q: `CCCN1C[C@H](CSC)C[C@@H]2c3cccc4[nH]cc(c34)C[C@H]21` [PERGOLIDE] was tested. Which IC50 did it give?
A: The IC50 was 0.12 µM.

Q: With `Cc1cc2c(s1)Nc1ccccc1N=C2N1CCN(C)CC1` [OLANZAPINE] as the compound, how does the IC50 read?
A: The IC50 was 0.204 µM.

Q: For `CC(C)(CN1CCC(=C2c3ccc(F)cc3COc3ccccc32)CC1)C(=O)O`, which IC50 is on record?
A: Its IC50 is 10 µM.

Q: For `CCOc1cc(N)c(Cl)cc1C(=O)NCC1CN(Cc2ccc(F)cc2)CCO1` (stereo not drawn) [MOSAPRIDE], which IC50 is on record?
A: The IC50 was 4.79 µM.

Q: For `CC(C)c1cn(-c2ccc(F)cc2)c2ccc(Cl)cc12`, which IC50 is on record?
A: The IC50 was 10 µM.

Q: With `CC(C)(C)N1CCC(c2ccccc2)(c2ccccc2)CC1` [BUDIPINE] as the compound, how does the IC50 read?
A: The IC50 was 0.851 µM.

Q: `CCC(=O)O[C@@](Cc1ccccc1)(c1ccccc1)[C@@H](C)CN(C)C` [LEVOPROPOXYPHENE] was tested. Which IC50 did it give?
A: The IC50 was 2.75 µM.

Q: Which IC50 does the source give for `O=C1CCC(c2ccc(Nc3ccncc3)cc2)=NN1` [SENAZODAN] here?
A: Its IC50 is 1.05 µM.

Q: `COC(=O)C1=CCC2CCC1N2C` (stereo in doubt; 41) was tested. Which IC50 did it give?
A: Its IC50 is 170 µM.

Q: For `CCCCCCCN(CC)CCCCc1ccc([N+](=O)[O-])cc1`, which IC50 is on record?
A: Its IC50 is 0.00219 µM.

Q: With `Fc1ccc(-n2cc(C3CCN(CCN4CCN=C4S)CC3)c3ccccc32)cc1` as the compound, how does the IC50 read?
A: Its IC50 is 0.00617 µM.

Q: `COc1ccc(Cc2nccc3cc(OC)c(OC)cc23)cc1OC` [PAPAVERINE] was tested. Which IC50 did it give?
A: Its IC50 is 7.24 µM.

Q: With `c1ccc(-c2[nH]c3ccccc3c2C2CC3CCC(C2)N3c2ccccc2)cc1` (stereo not drawn) as the compound, how does the IC50 read?
A: The IC50 was 0.0178 µM.

Q: For `CN1C2CCC1C(C(=O)O)C(OC(=O)c1ccccc1)C2` (stereo not drawn), which IC50 is on record?
A: Its IC50 is 3980 µM.

Q: How did the IC50 turn out when `Cc1cn2c(N)c(Cl)cc(C(=O)NCC3CCN(CC(C)C)CC3)c2n1` was run?
A: The IC50 was 2.57 µM.

Q: For `O=C(OC1CC2CC3CC(C1)N2CC3O)c1c[nH]c2ccccc12` (stereo not drawn) [MDL-74156], which IC50 is on record?
A: The IC50 was 12 µM.

Q: Which IC50 does the source give for `O=C(OC1Cc2c(O)cc(O)cc2OC1c1cc(O)c(O)c(O)c1)c1cc(O)c(O)c(O)c1` (stereo not drawn) here?
A: Its IC50 is 6.03 µM.

Q: How did the IC50 turn out when `CCNCCc1cccc(C(F)(F)F)c1` was run?
A: The IC50 was 537 µM.

Q: For `CCOP(=O)(Sc1ccccc1)Sc1ccccc1` [EDIFENPHOS], which IC50 is on record?
A: The IC50 was 50.1 µM.

Q: `CC(=O)c1cn(-c2ccc(F)cc2)c2ccc(Cl)cc12` was tested. Which IC50 did it give?
A: Its IC50 is 10 µM.

Q: With `CN1CC(=O)N2[C@H](c3ccc4c(c3)OCO4)c3[nH]c4ccccc4c3C[C@@H]2C1=O` as the compound, how does the IC50 read?
A: The IC50 was 100 µM.

Q: How did the IC50 turn out when `CC(C)(C)c1ccc2c(ccn2-c2ccc(F)cc2)c1` was run?
A: The IC50 was 10 µM.

Q: Which IC50 does the source give for `COc1ccc(CC(=O)NCc2ccccc2-c2ccccc2C(=O)NCCc2cccnc2)cc1` here?
A: Its IC50 is 10 µM.

Q: With `CCCCc1oc2ccc(NS(C)(=O)=O)cc2c1C(=O)c1ccc(OCCCN(CCCC)CCCC)cc1` [DRONEDARONE] as the compound, how does the IC50 read?
A: Its IC50 is 0.316 µM.

Q: With `O=C1NCCN1CCN1CCC(C2CN(c3ccc(F)cc3)c3ccccc32)CC1` (stereo not drawn) as the compound, how does the IC50 read?
A: Its IC50 is 0.0234 µM.

Q: With `Clc1ccccc1C(c1ccccc1)(c1ccccc1)n1ccnc1` [CLOTRIMAZOLE] as the compound, how does the IC50 read?
A: The IC50 was 3.02 µM.

Q: With `CCCC1NC(C)C2C(=O)N=C(c3cc(S(=O)(=O)N4CCN(CC)CC4)ccc3OCC)NN12` (stereo not drawn) as the compound, how does the IC50 read?
A: The IC50 was 12.9 µM.

Q: Which IC50 does the source give for `CCC(O)(CC)c1cn(-c2ccc(F)cc2)c2ccc(Cl)cc12` here?
A: The IC50 was 15.8 µM.

Q: For `COc1ccc(CC(=O)Nc2cc3c(cc2[N+](=O)[O-])OC(C)(C)[C@H](O)[C@H]3NC2CC2)cc1`, which IC50 is on record?
A: Its IC50 is 43.7 µM.

Q: For `COC(=O)[C@@H]1[C@H]2CC[C@@H](C[C@@H]1O)N2C`, which IC50 is on record?
A: Its IC50 is 417 µM.

Q: With `CCC1OC(=O)C(C)C(OC2CC(C)(OC)C(O)C(C)O2)C(C)C(OC2OC(C)CC(N(C)C)C2O)C(C)(OC)CC(C)C(=O)C(C)C(O)C1(C)O` (stereo not drawn) as the compound, how does the IC50 read?
A: Its IC50 is 33.1 µM.

Q: For `CN(C)CCCn1cc(C2=C(c3c[nH]c4ccccc34)C(=O)NC2=O)c2ccccc21` [GF-109203], which IC50 is on record?
A: Its IC50 is 1 µM.

Q: How did the IC50 turn out when `COc1cc(N)c(Cl)cc1C(=O)NC1CCN(Cc2ccccc2)CC1` [CLEBOPRIDE] was run?
A: The IC50 was 0.603 µM.

Q: With `CC(C)(C)c1ccc(NC(=O)N2CCN(c3ncccc3Cl)CC2)cc1` as the compound, how does the IC50 read?
A: The IC50 was 1 µM.

Q: Which IC50 does the source give for `CCCC(C)C1(CC)C(=O)NC(=O)NC1=O` (stereo not drawn) [PENTOBARBITAL] here?
A: Its IC50 is 132 µM.

Source: ChEMBL document CHEMBL1671772, “Predicting hERG activities of compounds from their 3D structures: development and evaluation of a global descriptors based QSAR model” (Eur J Med Chem, 2011)
